What was measured:
Format in all cases: in vivo
[1] = system: barnyardgrass (Echinochloa crus-galli); assay: Test A pre-/postemergence plant response
Outline: (§1)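 Seeds in loam soil/sand blend treated preemergence by directed soil spray, with simultaneous postemergence spray on 2–10 cm plants at one- to two-leaf stage; compounds in non-phytotoxic solvent with surfactant. Injury visually rated versus untreated controls after about 10 days in greenhouse, 0 (no effect) to 100 (complete control).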

[2] = system: corn (Zea mays); assay: Test A pre-/postemergence plant response
Outline: as §1

[3] = system: giant foxtail (Setaria faberi); assay: Test A pre-/postemergence plant response
Outline: as §1

[4] = system: large crabgrass (Digitaria sanguinalis); assay: Test A pre-/postemergence plant response
Outline: as §1

[5] = system: pigweed (Amaranthus retroflexus); assay: Test A pre-/postemergence plant response
Outline: as §1

[6] = system: wheat (Triticum aestivum); assay: Test A pre-/postemergence plant response
Outline: as §1

[7] = system: blackgrass (Alopecurus myosuroides); assay: Test B pre-/postemergence plant response
Source text: (§2) Seeds of plant species selected from blackgrass (Alopecurus myosuroides), downy bromegrass (Bromus tectorum), green foxtail (Setaria viridis), Italian ryegrass (Lolium multiflorum), wheat (Triticum aestivum), wild oat (Avena fatua), catchweed bedstraw (Galium aparine), bermudagrass (Cynodon dactylon), surinam grass (Brachiaria decumbens), cocklebur (Xanthium strumarium), corn (Zea mays), large crabgrass (Digitaria sanguinalis), woolly cupgrass (Eriochloa villosa), giant foxtail (Setaria faberii), goosegrass (Eleusine indica), johnsongrass (Sorghum halepense), kochia (Kochia scoparia), lambsquarters (Chenopodium album), morningglory (Ipomoea coccinea), eastern black (E.B.) nightshade (Solanum ptycanthum), yellow nutsedge (Cyperus esculentus), pigweed (Amaranthus retroflexus), common ragweed (Ambrosia elation), Russian thistle (Salsola iberica), soybean (Glycine max), common (oilseed) sunflower (Helianthus annuus), and velvetleaf (Abutilon theophrasti) were planted and treated preemergence with test chemicals formulated in a non-phytotoxic solvent mixture which included a surfactant.
(§3) At the same time, plants selected from these crop and weed species and also winter barley (Hordeum vulgare), canarygrass (Phalaris minor), chickweed (Stellaria media) and windgrass (Apera spica-venti) were treated with postemergence applications of some of the test chemicals formulated in the same manner. Plants ranged in height from 2 to 18 cm (1- to 4-leaf stage) for postemergence treatments.
(§4) Plant species in the flooded paddy test consisted of rice (Oryza sativa), umbrella sedge (Cyperus difformis), ducksalad (Heteranthera limosa) and barnyardgrass (Echinochloa crus-galli) grown to the 2-leaf stage for testing. At time of treatment, test pots were flooded to 3 cm above the soil surface, treated by application of test compounds directly to the paddy water, and then maintained at that water depth for the duration of the test. Treated plants and controls were maintained in a greenhouse for 13 to 15 days, after which time all species were compared to controls and visually evaluated. Plant response ratings, summarized in Table B, are based on a scale of 0 to 100 where 0 is no effect and 100 is complete control. A dash (-) response means no test result.

[8] = system: lambsquarters (Chenopodium album); assay: Test B pre-/postemergence plant response
Source text: as §2, §3, §4

[9] = system: morningglory (Ipomoea coccinea); assay: Test B pre-/postemergence plant response
Source text: as §2, §3, §4

[10] = Postemergence, 31 g ai/ha, 0 to 100 scale, 0 no effect, 100 complete control
[11] = Postemergence, 125 g ai/ha, 0 to 100 scale, 0 no effect, 100 complete control
[12] = Preemergence, 31 g ai/ha, 0 to 100 scale, 0 is no effect, 100 is complete control
[13] = Preemergence, 125 g ai/ha, 0 to 100 scale (0 no effect, 100 complete control)
[14] = 8 g ai/ha, postemergence, 0-100 scale
[15] = Postemergence, 16 g ai/ha, scale 0 to 100
[16] = Postemergence, 31 g ai/ha, scale 0 to 100
[17] = Postemergence, 62 g ai/ha, scale 0 to 100, 0 no effect, 100 complete control
[18] = 16 g ai/ha, postemergence, 0-100 scale
[19] = Preemergence, 31 g ai/ha, scale 0 to 100 (0 no effect, 100 complete control)
[20] = Preemergence, 62 g ai/ha, 0 to 100 scale, 0 no effect, 100 complete control
[21] = Preemergence, 8 g ai/ha, scale 0 to 100
[22] = Preemergence, 16 g ai/ha, scale 0 to 100

CCc1cc(-c2ccc(Br)cc2)nn1-c1c(O)cnn(CC(F)(F)F)c1=O [Compound 73]
Plant response rating, Barnyardgrass [1, 10]: 60 | Plant response rating, Barnyardgrass [1, 11]: 100 | Plant response rating, Barnyardgrass [1, 12]: 0 | Plant response rating, Barnyardgrass [1, 13]: 10 | Plant response rating, Corn [2, 10]: 90 | Plant response rating, Corn [2, 11]: 100 | Plant response rating, Corn [2, 12]: 0 | Plant response rating, Corn [2, 13]: 20 | Plant response rating, Foxtail, Giant [3, 10]: 50 | Plant response rating, Foxtail, Giant [3, 11]: 100 | Plant response rating, Foxtail, Giant [3, 12]: 0 | Plant response rating, Foxtail, Giant [3, 13]: 30 | Plant response rating, Crabgrass, Large [4, 10]: 40 | Plant response rating, Crabgrass, Large [4, 11]: 100 | Plant response rating, Crabgrass, Large [4, 12]: 0 | Plant response rating, Crabgrass, Large [4, 13]: 50 | Plant response rating, Pigweed [5, 10]: 10 | Plant response rating, Pigweed [5, 11]: 10 | Plant response rating, Pigweed [5, 12]: 0 | Plant response rating, Pigweed [5, 13]: 0 | Plant response rating, Wheat [6, 10]: 40 | Plant response rating, Wheat [6, 11]: 70 | Plant response rating, Wheat [6, 12]: 20 | Plant response rating, Wheat [6, 13]: 70 | Blackgrass plant response rating [7, 14]: 60 | Plant response rating, Blackgrass [7, 15]: 100 | Plant response rating, Blackgrass [7, 16]: 100 | Plant response rating, Blackgrass [7, 17]: 100 | Lambsquarters plant response rating [8, 14]: 0 | Lambsquarters plant response rating [8, 18]: 0 | Plant response rating, Lambsquarters [8, 16]: 0 | Plant response rating, Lambsquarters [8, 17]: 0 | Morningglory plant response rating [9, 14]: 0 | Morningglory plant response rating [9, 18]: 0 | Plant response rating, Morningglory [9, 16]: 0 | Plant response rating, Morningglory [9, 17]: 0

CCCc1cc(-c2ccc(C(F)(F)F)cc2)nn1-c1c(O)cnn(C)c1=O [Compound 72]
Plant response rating, Barnyardgrass [1, 10]: 50 | Plant response rating, Barnyardgrass [1, 11]: 100 | Plant response rating, Barnyardgrass [1, 12]: 20 | Plant response rating, Barnyardgrass [1, 13]: 90 | Plant response rating, Corn [2, 10]: 80 | Plant response rating, Corn [2, 11]: 100 | Plant response rating, Corn [2, 12]: 20 | Plant response rating, Corn [2, 13]: 50 | Plant response rating, Foxtail, Giant [3, 10]: 90 | Plant response rating, Foxtail, Giant [3, 11]: 100 | Plant response rating, Foxtail, Giant [3, 12]: 70 | Plant response rating, Foxtail, Giant [3, 13]: 90 | Plant response rating, Crabgrass, Large [4, 10]: 20 | Plant response rating, Crabgrass, Large [4, 11]: 90 | Plant response rating, Crabgrass, Large [4, 12]: 0 | Plant response rating, Crabgrass, Large [4, 13]: 60 | Plant response rating, Pigweed [5, 10]: 0 | Plant response rating, Pigweed [5, 11]: 0 | Plant response rating, Pigweed [5, 12]: 0 | Plant response rating, Pigweed [5, 13]: 0 | Plant response rating, Wheat [6, 10]: 60 | Plant response rating, Wheat [6, 11]: 90 | Plant response rating, Wheat [6, 12]: 50 | Plant response rating, Wheat [6, 13]: 80 | Blackgrass plant response rating [7, 14]: 80 | Plant response rating, Blackgrass [7, 15]: 95 | Plant response rating, Blackgrass [7, 16]: 98 | Plant response rating, Blackgrass [7, 17]: 100 | Plant response rating, Blackgrass ([7]; Preemergence, 16 g ai/ha, scale 0 to 100 (0 no effect, 100 complete control)): 90 | Plant response rating, Blackgrass [7, 19]: 95 | Plant response rating, Blackgrass [7, 20]: 100 | Blackgrass plant response rating [7, 21]: 60 | Lambsquarters plant response rating [8, 14]: 0 | Lambsquarters plant response rating [8, 18]: 0 | Plant response rating, Lambsquarters [8, 16]: 0 | Plant response rating, Lambsquarters [8, 17]: 0 | Plant response rating, Lambsquarters [8, 19]: 30 | Plant response rating, Lambsquarters [8, 20]: 40 | Lambsquarters plant response rating [8, 21]: 0 | Lambsquarters plant response rating [8, 22]: 0 | Morningglory plant response rating [9, 14]: 0 | Morningglory plant response rating [9, 18]: 0 | Plant response rating, Morningglory [9, 16]: 0 | Plant response rating, Morningglory [9, 17]: 0 | Plant response rating, Morningglory [9, 19]: 0 | Plant response rating, Morningglory [9, 20]: 0 | Morningglory plant response rating [9, 21]: 0 | Morningglory plant response rating [9, 22]: 0

CCCc1cc(-c2ccc(Cl)cc2)nn1-c1c(O)cnn(C)c1=O [Compound 76]
Plant response rating, Barnyardgrass [1, 10]: 90 | Plant response rating, Barnyardgrass [1, 11]: 100 | Plant response rating, Barnyardgrass [1, 12]: 40 | Plant response rating, Barnyardgrass [1, 13]: 100 | Plant response rating, Corn [2, 10]: 20 | Plant response rating, Corn [2, 11]: 100 | Plant response rating, Corn [2, 12]: 0 | Plant response rating, Corn [2, 13]: 50 | Plant response rating, Foxtail, Giant [3, 10]: 70 | Plant response rating, Foxtail, Giant [3, 11]: 90 | Plant response rating, Foxtail, Giant [3, 12]: 70 | Plant response rating, Foxtail, Giant [3, 13]: 100 | Plant response rating, Crabgrass, Large [4, 10]: 20 | Plant response rating, Crabgrass, Large [4, 11]: 100 | Plant response rating, Crabgrass, Large [4, 12]: 20 | Plant response rating, Crabgrass, Large [4, 13]: 80 | Plant response rating, Pigweed [5, 10]: 0 | Plant response rating, Pigweed [5, 11]: 0 | Plant response rating, Pigweed [5, 12]: 0 | Plant response rating, Pigweed [5, 13]: 0 | Plant response rating, Wheat [6, 10]: 20 | Plant response rating, Wheat [6, 11]: 50 | Plant response rating, Wheat [6, 12]: 0 | Plant response rating, Wheat [6, 13]: 0 | Blackgrass plant response rating [7, 14]: 70 | Plant response rating, Blackgrass [7, 15]: 85 | Plant response rating, Blackgrass [7, 16]: 100 | Plant response rating, Blackgrass [7, 17]: 100 | Plant response rating, Blackgrass [7, 19]: 80 | Plant response rating, Blackgrass [7, 20]: 90 | Blackgrass plant response rating [7, 21]: 40 | Blackgrass plant response rating [7, 22]: 40 | Lambsquarters plant response rating [8, 14]: 0 | Lambsquarters plant response rating [8, 18]: 0 | Plant response rating, Lambsquarters [8, 16]: 0 | Plant response rating, Lambsquarters [8, 17]: 0 | Plant response rating, Lambsquarters [8, 19]: 0 | Plant response rating, Lambsquarters [8, 20]: 0 | Lambsquarters plant response rating [8, 21]: 0 | Lambsquarters plant response rating [8, 22]: 0 | Morningglory plant response rating [9, 14]: 0 | Morningglory plant response rating [9, 18]: 0 | Plant response rating, Morningglory [9, 16]: 0 | Plant response rating, Morningglory [9, 17]: 0 | Plant response rating, Morningglory [9, 19]: 0 | Plant response rating, Morningglory [9, 20]: 0 | Morningglory plant response rating [9, 21]: 0 | Morningglory plant response rating [9, 22]: 0

— US20100267561A1, “HERBICIDAL PYRIDAZINONE DERIVATIVES” (priority 2007, published 2010)
